Active and inactive are the calls of the source. The rule behind the calls is not given here.

The target in data set [1] is T1, Tyrosinase (Homo sapiens) (UniProt P14679).
T1 sequence (whole entry): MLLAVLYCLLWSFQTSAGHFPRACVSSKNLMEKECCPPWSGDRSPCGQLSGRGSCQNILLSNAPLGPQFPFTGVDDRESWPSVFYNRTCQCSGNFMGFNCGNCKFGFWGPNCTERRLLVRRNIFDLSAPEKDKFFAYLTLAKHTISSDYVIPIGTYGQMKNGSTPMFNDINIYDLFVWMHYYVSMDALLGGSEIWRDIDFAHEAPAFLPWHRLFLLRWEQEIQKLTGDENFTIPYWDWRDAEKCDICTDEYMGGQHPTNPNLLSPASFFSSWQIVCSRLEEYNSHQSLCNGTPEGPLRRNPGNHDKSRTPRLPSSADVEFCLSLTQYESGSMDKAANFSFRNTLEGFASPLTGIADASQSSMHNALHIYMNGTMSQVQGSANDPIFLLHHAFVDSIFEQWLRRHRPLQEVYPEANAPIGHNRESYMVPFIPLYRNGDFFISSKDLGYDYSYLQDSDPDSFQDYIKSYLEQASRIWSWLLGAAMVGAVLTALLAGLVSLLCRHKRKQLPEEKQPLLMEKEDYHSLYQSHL
The experiment in a line: Inhibition of tyrosinase in human A375 cells assessed as effect on alpha-MSH-induced melanin formation at 25 uM after 24 hrs relative to control. Format: cell-based. On the set-up: scale not given: the % may be the effect or the level left.

Data set [2] deals with T2, Tyrosinase (Mus musculus) (UniProt P11344).
T2 sequence (whole entry): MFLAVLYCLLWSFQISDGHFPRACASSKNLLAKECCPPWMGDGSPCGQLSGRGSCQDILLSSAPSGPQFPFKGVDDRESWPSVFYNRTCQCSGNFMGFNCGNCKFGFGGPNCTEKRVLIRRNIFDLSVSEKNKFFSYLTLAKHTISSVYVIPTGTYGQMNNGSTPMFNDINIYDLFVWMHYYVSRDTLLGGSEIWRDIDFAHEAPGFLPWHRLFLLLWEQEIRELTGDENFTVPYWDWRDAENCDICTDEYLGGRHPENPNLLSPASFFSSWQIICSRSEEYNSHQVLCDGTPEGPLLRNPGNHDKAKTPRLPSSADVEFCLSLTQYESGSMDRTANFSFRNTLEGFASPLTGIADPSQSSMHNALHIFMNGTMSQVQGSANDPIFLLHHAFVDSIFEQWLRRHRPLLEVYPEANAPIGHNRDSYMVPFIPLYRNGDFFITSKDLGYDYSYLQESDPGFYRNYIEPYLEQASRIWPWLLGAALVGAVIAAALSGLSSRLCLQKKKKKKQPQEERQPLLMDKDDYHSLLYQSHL
Description: Inhibition of tyrosinase in mouse B16 cells assessed as effect on alpha-MSH-induced melanin formation at 25 uM after 24 hrs relative to control. The data set is classed as cell-based. On the set-up: scale not given: the % may be the effect or the level left.

Data set [3] is described as follows: Growth inhibition of human A375 cells at 25 uM after 48 hrs by SRB assay relative to control. The data set is classed as cell-based, A-375. The note with it: read-out: GI. (In general: Sulforhodamine B stains cellular protein and so reports cell mass.)
A short description of data set [4]: Growth inhibition of mouse B16 cells at 25 uM after 48 hrs by SRB assay relative to control. The data set is classed as cell-based. As to conditions: read-out: GI.
Data set [5] deals with T1, Tyrosinase (Homo sapiens). The experiment in a line: Inhibition of tyrosinase in human A375 cells at 25 uM using L-DOPA as substrate after 24 hrs by spectrophotometric method. The data set is classed as cell-based.
For data set [6], the target named is T2, Tyrosinase (Mus musculus). The experiment in a line: Inhibition of tyrosinase in mouse B16 cells at 25 uM using L-DOPA as substrate after 24 hrs by spectrophotometric method. Format: cell-based.
Data set [7] is described as follows: Antioxidant activity assessed as ABTS radical scavenging activity at 25 uM after 15 mins. The data set is classed as functional. On the set-up: reference not given here.
The test system of data set [8] is A-375. The experiment in a line: Inhibition of alpha-MSH-induced TRP-1 expression in human A375 cells at 25 uM after 24 hrs by Western blot method. The data set is classed as functional, cell-based. (In general: Immunoblotting shows a protein as a band on a membrane.)
In data set [9] the test system is A-375. The experiment in a line: Inhibition of alpha-MSH-induced TRP-2 expression in human A375 cells at 25 uM after 24 hrs by Western blot method. The data set is classed as functional, cell-based.
Data set [10] has as its system A-375. Description: Inhibition of alpha-MSH-induced reactive oxygen species generation in human A375 cells at 25 uM after 4 hrs by DCFDA staining-based fluorescence assay. The data set is classed as functional, cell-based.

For the molecule `O=C(Oc1ccc(CCc2cc(OC(=O)c3ccccc3)cc(OC(=O)c3ccccc3)c2)cc1)c1ccccc1`, the results for the Activity in data set [1] and in [2] were 85.2% and 87%, respectively. Also, the inhibition at 48 h, 25 µM in [3] stood at 4.55%; in data set [4] it was 4.92%.
On to `CCCC(=O)Oc1ccc(CCc2cc(OC(=O)CCC)cc(OC(=O)CCC)c2)cc1`, for which the Activity in [1] stood at 98.9%; in [2], 96.2%; in data set [7] it was 94.3 mg.equiv. Besides, the inhibition at 48 h, 25 µM in data set [3] was 17.9%; in data set [4], 4.81%. Besides, the inhibition entry in data set [5] was “Active”. For the same molecule, the inhibition entry in [6] is “inactive”.
With `Oc1ccc(/C=C/c2cc(O)cc(O)c2)cc1` [RESVERATROL], the Activity worked out at 80.4% in data set [1] and 80.2% in [2]. The inhibition at 48 h, 25 µM in data set [3] was 9.79%; in data set [4], 13.1%. Also, the inhibition result in the data set on A-375 [8], in the data set with A-375 [9] and in the data set on A-375 [10] was “Active” each time.
On to `O=C(Oc1ccc(CCc2cc(OC(=O)C3CCCC3)cc(OC(=O)C3CCCC3)c2)cc1)C1CCCC1`, for which the values for the Activity in data set [1] and in [2] were 97.2% and 95.9%, respectively. The inhibition at 48 h, 25 µM in data set [3] turned out to be 14.3%; in data set [4], 9.69%.
As to `C=CCOc1ccc(CCc2cc(OCC=C)cc(OCC=C)c2)cc1`, the Activity turned out to be 88.1% in [1], 96.5% in [2] and 119 mg.equiv in [7]. Also, the inhibition at 48 h, 25 µM in data set [3] was found to be 6.83%; in data set [4], 1.31%. Besides, the inhibition entry in data set [5] was “Active”. The inhibition entry in data set [6] is “inactive”.
Regarding `O=C(Oc1ccc(CCc2cc(OC(=O)c3ccc(Cl)cc3)cc(OC(=O)c3ccc(Cl)cc3)c2)cc1)c1ccc(Cl)cc1`, the values for the Activity in data set [1] and in [2] were 93.4% and 99.2%, respectively. For the same molecule, the inhibition at 48 h, 25 µM was determined as 21.5% in data set [3] and 5.26% in data set [4].
Take `Oc1ccc(CCc2cc(O)cc(O)c2)cc1` [DIHYDRORESVERATROL]: the results for the Activity in [1], in data set [2] and in [7] were 78%, 78.3% and 4970 mg.equiv, respectively. Besides, the inhibition at 48 h, 25 µM came out at 6.42% in [3] and 5.2% in [4]. The inhibition entry in the data set on A-375 [8], in the data set on A-375 [9] and in the data set with A-375 [10] was “Active” throughout.
With `O=C(OCc1ccccc1)Oc1ccc(CCc2cc(OC(=O)OCc3ccccc3)cc(OC(=O)OCc3ccccc3)c2)cc1`, the results for the Activity in data set [1] and in data set [2] were 92.4% and 89.9%, respectively. For the same molecule, the inhibition at 48 h, 25 µM was 6.35% in data set [3] and 5.12% in data set [4].
Consider `CC(C)(C)C(=O)Oc1ccc(CCc2cc(OC(=O)C(C)(C)C)cc(OC(=O)C(C)(C)C)c2)cc1`, for which the Activity in [1] was 94.6%; in data set [2], 93%. The inhibition at 48 h, 25 µM in data set [3] stood at 9.53%; in data set [4], 6.91%.
With `CCCOc1ccc(CCc2cc(OCCC)cc(OCCC)c2)cc1`, the Activity in [1] came to 85.1%; in data set [2], 94.7%; in data set [7] it was 30.2 mg.equiv. Also, the inhibition at 48 h, 25 µM in [3] was found to be 3.36%; in [4] it was 1.34%.
In the case of `C=CC(=O)Oc1ccc(CCc2cc(OC(=O)C=C)cc(OC(=O)C=C)c2)cc1`, the Activity is 50.5% in data set [1], 76% in data set [2] and 15.9 mg.equiv in [7]. The inhibition at 48 h, 25 µM in data set [3] is 15.6%; in data set [4] it was 13.9%. For the same molecule, the inhibition result (in [5]; in [6]; in the data set on A-375 [8]; in the data set with A-375 [9]; in the data set on A-375 [10]) was “Active” throughout.
Turning to `COc1ccc(C(=O)Oc2ccc(CCc3cc(OC(=O)c4ccc(OC)cc4)cc(OC(=O)c4ccc(OC)cc4)c3)cc2)cc1`, the Activity was 104% in [1] and 94.7% in data set [2]. In addition, the inhibition at 48 h, 25 µM was found to be 6.05% in data set [3] and 5.12% in [4].
In the case of `O=C1O[C@H]([C@@H](O)CO)C(O)=C1O` [ASCORBIC ACID], the Activity amounted to 75% in [1] and 83.7% in data set [2]. Also, the inhibition at 48 h, 25 µM in data set [3] turned out to be 8.63%; in data set [4] it was 4.94%. Besides, the inhibition entry in the data set with A-375 [8] and with A-375 [9] was “Active” throughout.

These data come from ChEMBL document CHEMBL4138192, “Design, synthesis and evaluation of novel dihydrostilbene derivatives as potential anti-melanogenic skin-protecting agents” (Eur J Med Chem, 2018).
